In patent US20090005395A1 (Solvay Pharmaceuticals, B.V., priority 2007, published 2009):

How the values were obtained:
[1] = Plasma and brain concentrations of N-desmethylsildenafil (pilot experiment); type: in vivo, male NMRI mice; conditions: mice, i.v. or p.o.; for the N-oxide only observed after oral dosing
Procedure: Sildenafil and its N-oxide were analyzed in mouse plasma and brain samples using a generic bioanalytical method comprising protein precipitation and HPLC with MS/MS detection.
Sample preparation: Proteins in 100 μl plasma were precipitated with acetonitrile, and 5 μl samples of the obtained solution were analyzed. Complete brains were homogenized and centrifuged, and 10 μl samples of the supernatant were analyzed.
Liquid Chromatography-Tandem Mass Spectrometry (LC-MS/MS) was performed using a Sciex API4000 LC-MS/MS. Quantification of the samples was done using extracted calibration samples, treated the same as the study samples in the range of 1-5000 ng/ml and 5.0-5000 ng/brain for plasma and brains samples, respectively. Compound peak area was used for quantification. The calibration curves were fitted to the model y=A+Bx+Cx^2 (y is the peak area of the analyte, x is the nominal calibration level in ng/ml (plasma) or ng/g (brain), A is the intercept, B is the slope and C is the description of the curvature). 1/x^2 weighing was used. LC-MS/MS system performance was monitored using a reference solution injected at standard intervals. The method use for testing was not validated in detail, therefore the reported concentrations were good estimations. The Lower Limit Of Quantification (LLOQ) was established at 1.00 ng/ml and 5.00 ng/brain, for plasma and brain samples, respectively. […]

[2] = tested on: PDE-I; assay: In vitro inhibition of phosphodiesterases (CEREP): PDE-I; conditions: bovine brain
[3] = target: PDE-V (Homo sapiens, UniProt O76074); assay: In vitro inhibition of phosphodiesterases (CEREP): PDE-V
[4] = target: PDE-II (Homo sapiens, UniProt O00408); assay: In vitro inhibition of phosphodiesterases (CEREP): PDE-II
Chain of PDE-II (O00408 whole entry): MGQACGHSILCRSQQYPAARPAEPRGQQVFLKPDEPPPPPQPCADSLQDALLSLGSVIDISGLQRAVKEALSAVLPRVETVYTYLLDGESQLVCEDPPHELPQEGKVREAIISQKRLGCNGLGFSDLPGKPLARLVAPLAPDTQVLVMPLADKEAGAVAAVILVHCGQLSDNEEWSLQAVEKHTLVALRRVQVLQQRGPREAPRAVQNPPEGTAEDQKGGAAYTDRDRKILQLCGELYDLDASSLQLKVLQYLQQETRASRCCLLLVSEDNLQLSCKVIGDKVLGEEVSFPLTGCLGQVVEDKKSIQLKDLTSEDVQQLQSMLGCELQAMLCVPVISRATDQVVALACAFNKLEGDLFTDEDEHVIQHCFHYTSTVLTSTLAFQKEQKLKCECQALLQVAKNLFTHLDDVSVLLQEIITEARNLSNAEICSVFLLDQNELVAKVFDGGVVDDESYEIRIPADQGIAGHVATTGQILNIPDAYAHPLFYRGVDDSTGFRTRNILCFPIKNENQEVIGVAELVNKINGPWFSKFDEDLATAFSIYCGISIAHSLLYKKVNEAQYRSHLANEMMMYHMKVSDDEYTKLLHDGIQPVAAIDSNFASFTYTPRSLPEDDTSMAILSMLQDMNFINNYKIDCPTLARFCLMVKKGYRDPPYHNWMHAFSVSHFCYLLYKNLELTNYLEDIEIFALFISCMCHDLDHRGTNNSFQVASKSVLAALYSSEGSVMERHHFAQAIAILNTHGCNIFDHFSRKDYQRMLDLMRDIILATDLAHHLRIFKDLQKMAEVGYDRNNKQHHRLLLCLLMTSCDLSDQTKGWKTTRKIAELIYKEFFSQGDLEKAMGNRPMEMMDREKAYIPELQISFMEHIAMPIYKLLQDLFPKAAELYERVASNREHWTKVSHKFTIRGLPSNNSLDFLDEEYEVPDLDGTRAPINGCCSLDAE

[5] = tested on: PDE-IV; assay: In vitro inhibition of phosphodiesterases (CEREP): PDE-IV; conditions: human U-937 monocytes
[6] = target: T1, PDE-VI (Bos taurus, UniProt P11541+P23439); assay: In vitro inhibition of phosphodiesterases (CEREP): PDE-VI
T1 sequence (P11541 2-856 limits assumed): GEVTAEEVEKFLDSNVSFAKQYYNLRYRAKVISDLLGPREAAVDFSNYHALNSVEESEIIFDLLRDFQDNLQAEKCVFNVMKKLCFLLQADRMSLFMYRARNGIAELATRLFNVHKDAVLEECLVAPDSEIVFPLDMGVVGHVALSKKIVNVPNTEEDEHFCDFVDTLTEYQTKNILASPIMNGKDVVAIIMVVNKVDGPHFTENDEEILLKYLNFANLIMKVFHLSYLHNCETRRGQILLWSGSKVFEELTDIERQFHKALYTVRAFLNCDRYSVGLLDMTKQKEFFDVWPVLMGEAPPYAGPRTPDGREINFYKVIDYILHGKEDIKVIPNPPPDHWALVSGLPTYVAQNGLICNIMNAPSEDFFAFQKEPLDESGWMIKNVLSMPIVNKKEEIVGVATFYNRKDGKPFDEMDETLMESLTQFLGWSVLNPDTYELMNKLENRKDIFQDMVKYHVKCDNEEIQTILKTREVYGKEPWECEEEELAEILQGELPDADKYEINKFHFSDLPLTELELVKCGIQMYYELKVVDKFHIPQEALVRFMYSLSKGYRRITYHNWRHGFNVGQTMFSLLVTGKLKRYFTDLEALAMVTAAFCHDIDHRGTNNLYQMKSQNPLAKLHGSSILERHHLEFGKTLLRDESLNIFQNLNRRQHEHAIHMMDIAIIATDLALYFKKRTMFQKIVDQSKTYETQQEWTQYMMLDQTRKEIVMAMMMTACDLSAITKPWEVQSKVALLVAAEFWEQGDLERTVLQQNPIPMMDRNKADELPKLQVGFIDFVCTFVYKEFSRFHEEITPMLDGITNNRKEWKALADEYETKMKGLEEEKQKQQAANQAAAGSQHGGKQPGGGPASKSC
T1 sequence (P23439 2-850 limits assumed): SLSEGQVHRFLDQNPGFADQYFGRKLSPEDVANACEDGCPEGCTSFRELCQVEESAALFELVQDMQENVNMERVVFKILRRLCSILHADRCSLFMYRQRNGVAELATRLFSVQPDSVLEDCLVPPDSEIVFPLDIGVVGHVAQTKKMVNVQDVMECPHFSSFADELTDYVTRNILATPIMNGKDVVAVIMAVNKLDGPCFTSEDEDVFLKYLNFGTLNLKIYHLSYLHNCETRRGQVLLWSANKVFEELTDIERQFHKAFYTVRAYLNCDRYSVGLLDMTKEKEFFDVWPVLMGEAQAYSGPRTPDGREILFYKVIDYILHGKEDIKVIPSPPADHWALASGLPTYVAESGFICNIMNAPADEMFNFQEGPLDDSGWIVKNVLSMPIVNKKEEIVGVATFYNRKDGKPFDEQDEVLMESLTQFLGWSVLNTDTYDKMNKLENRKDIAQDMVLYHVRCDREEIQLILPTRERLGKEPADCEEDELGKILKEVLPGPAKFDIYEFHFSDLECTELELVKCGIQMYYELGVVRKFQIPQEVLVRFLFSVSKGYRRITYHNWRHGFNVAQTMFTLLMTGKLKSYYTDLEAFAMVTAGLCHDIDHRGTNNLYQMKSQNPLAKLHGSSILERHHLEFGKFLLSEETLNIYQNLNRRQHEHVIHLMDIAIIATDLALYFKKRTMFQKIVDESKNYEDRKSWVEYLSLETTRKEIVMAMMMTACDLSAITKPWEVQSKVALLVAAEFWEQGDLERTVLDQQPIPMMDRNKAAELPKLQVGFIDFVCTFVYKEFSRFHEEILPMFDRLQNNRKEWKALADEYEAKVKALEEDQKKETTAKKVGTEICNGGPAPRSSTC

[7] = target: PDE-III (Homo sapiens, UniProt Q14432); assay: In vitro inhibition of phosphodiesterases (CEREP): PDE-III
Chain of PDE-III (Q14432 674-1093 limits assumed): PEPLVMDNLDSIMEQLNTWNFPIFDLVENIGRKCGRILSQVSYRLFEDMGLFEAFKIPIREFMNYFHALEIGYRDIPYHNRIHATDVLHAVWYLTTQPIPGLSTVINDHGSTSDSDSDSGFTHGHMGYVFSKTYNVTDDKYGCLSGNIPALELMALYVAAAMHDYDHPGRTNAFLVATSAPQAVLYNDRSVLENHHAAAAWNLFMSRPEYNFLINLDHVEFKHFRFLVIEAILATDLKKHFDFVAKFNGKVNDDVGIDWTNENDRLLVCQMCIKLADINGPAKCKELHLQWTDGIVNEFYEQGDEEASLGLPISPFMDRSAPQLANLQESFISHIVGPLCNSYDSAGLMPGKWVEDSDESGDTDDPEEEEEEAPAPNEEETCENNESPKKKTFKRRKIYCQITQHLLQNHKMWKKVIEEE

CCCc1nn(C)c2c(=O)[nH]c(-c3cc(S(=O)(=O)N4CC[N+](C)([O-])CC4)ccc3OCC)nc12 [Sildenafil-N-oxide, 1-[[3-(6,7-dihydro-1-methyl-7-oxo-3-propyl-1H-pyrazolo[4,3-d]pyrimidin-5-yl)-4-ethoxyphenyl]sulfonyl]-4-methyl-4-oxido-piperazine]
metabolism to N-desmethylsildenafil [1]: metabolized to N-desmethylsildenafil
pIC50 PDE-I [2]: 5.8
IC50 [3]: 200 nM
activity relative to the parent compound sildenafil [3]: about one tenth
fold less potent than sildenafil ([3]; from Table 5): 10 fold
IC50 [4]: > 10 µM
pIC50 PDE-IV [5]: <5.0
IC50 [6]: 1000 nM
IC50 [7]: > 10 µM
